# Measurements published in patent US20230167088A1, “1-PYRAZINYLPYRAZOLYL-3-OXYALKYL ACIDS AND THEIR DERIVATIVES, AND THEIR USE FOR CONTROL OF UNDESIRED PLANT GROWTH” (BAYER AKTIENGESELLSCHAFT, priority 2020, published 2023).
# Experiments:
# DIGSA [1] = assay: Herbicidal pre-emergence action 2b (doubly sown, 1280 g/ha); format: in vivo, Digitaria sanguinalis; conditions: doubly sown pots, dosage 1280 g/ha, visual scoring after about 3 weeks
# Source text: (§1) [table] b) Seeds of mono- and dicotyledonous weed plants are placed in plastic pots in sandy loam soil (doubly sown with one species each of mono- or dicotyledonous weed plants per pot) and covered with soil. The compounds of the invention, formulated in the form of wettable powders (WP) or as emulsion concentrates (EC), are then applied onto the surface of the covering soil as aqueous suspension or emulsion with addition of 0.5% additive at a water application rate equivalent to 600 litres per hectare. After the treatment, the pots are placed in a greenhouse and kept under good growth conditions for the trial plants. After about 3 weeks, the effect of the preparations is scored visually in comparison with untreated controls as percentages. For example, 100% activity=the plants have died, 0% activity=like control plants. Tables B16 to B21 below show the effects of selected compounds of the general formula (I) according to Tables 1 and 2 on various harmful plants and at an application rate corresponding to 1280 g/ha, which were obtained by the experimental procedure mentioned above.
# MATIN [2] = assay: Herbicidal post-emergence action 1b (twin sowing, 1280 g/ha); format: in vivo, Matricaria inodora; conditions: dosage 1280 g/ha, visual rating about 3 weeks after treatment
# Protocol: (§2) [table] b) Seeds of mono- and dicotyledonous weed plants are placed in plastic pots in sandy loam soil (twin sowing with one species each of mono- or dicotyledonous weed plants per pot), covered with soil and cultivated in a greenhouse under controlled growth conditions. 2 to 3 weeks after sowing, the test plants are treated at the one-leaf stage. The compounds of the invention, formulated in the form of wettable powders (WP) or as emulsion concentrates (EC), are applied to the green parts of the plants as aqueous suspension or emulsion with addition of 0.5% additive at a water application rate equivalent to 600 litres per hectare. After the test plants have been kept in the greenhouse under optimum growth conditions for about 3 weeks, the activity of the preparations is rated visually in comparison to untreated controls. For example, 100% activity=the plants have died, 0% activity=like control plants. Tables A16 to A21 below show the effects of selected compounds of the general formula (I) according to Tables 1 and 2 on various harmful plants and at an application rate corresponding to 1280 g/ha, which were obtained by the experimental procedure mentioned above.
# POAAN [3] = assay: Herbicidal pre-emergence action 2b (doubly sown, 1280 g/ha); format: in vivo, Poa annua; conditions: doubly sown pots, dosage 1280 g/ha, visual scoring after about 3 weeks
# Source text: as §1
# ECHCG [4] = assay: as above; format: in vivo, Echinochloa crus-galli; conditions: doubly sown pots, dosage 1280 g/ha, visual scoring after about 3 weeks
# Source text: as §1
# ECHCG [5] = assay: Herbicidal post-emergence action 1b (twin sowing, 1280 g/ha); format: in vivo, Echinochloa crus-galli; conditions: dosage 1280 g/ha, visual rating about 3 weeks after treatment
# Protocol: as §2
# AMARE [6] = assay: Herbicidal pre-emergence action 2b (doubly sown, 1280 g/ha); format: in vivo, Amaranthus retroflexus; conditions: doubly sown pots, dosage 1280 g/ha, visual scoring after about 3 weeks
# Source text: as §1
# STEME = assay: as above; format: in vivo, Stellaria media; conditions: doubly sown pots, dosage 1280 g/ha, visual scoring after about 3 weeks
# Source text: as §1
# POAAN [7] = assay: Herbicidal post-emergence action 1b (twin sowing, 1280 g/ha); format: in vivo, Poa annua; conditions: dosage 1280 g/ha, visual rating about 3 weeks after treatment
# Protocol: as §2
# DIGSA [8] = assay: as above; format: in vivo, Digitaria sanguinalis; conditions: dosage 1280 g/ha, visual rating about 3 weeks after treatment
# Protocol: as §2
# VERPE [9] = assay: Herbicidal pre-emergence action 2a (greenhouse pots, visual scoring); format: in vivo, Veronica persica; conditions: dosage 320 g/ha, visual scoring after about 3 weeks vs untreated controls
# Source text: (§3) [table] a) Seeds of monocotyledonous and dicotyledonous weed plants and crop plants are placed in plastic or organic plant pots and covered with soil. The compounds of the invention, formulated in the form of wettable powders (WP) or as emulsion concentrates (EC), are then applied onto the surface of the covering soil as aqueous suspension or emulsion with addition of 0.5% additive at a water application rate of 600 1/ha (converted). After the treatment, the pots are placed in a greenhouse and kept under good growth conditions for the trial plants. After about 3 weeks, the effect of the preparations is scored visually in comparison with untreated controls as percentages. For example, 100% activity=the plants have died, 0% activity=like control plants. Tables B1 to B15 below show the effects of selected compounds of the general formula (I) according to Tables 1 and 2 on various harmful plants and an application rate corresponding to 320 g/ha and/or 80 g/ha, which were obtained by the experimental procedure mentioned above.
# AMARE [10] = assay: Herbicidal post-emergence action 1a (greenhouse pots, visual rating); format: in vivo, Amaranthus retroflexus; conditions: dosage 320 g/ha, visual rating about 3 weeks after treatment
# Protocol: (§4) [table] a) Seeds of monocotyledonous and dicotyledonous weeds and crop plants are placed in sandy loam in plastic or organic plant pots, covered with soil and cultivated in a greenhouse under controlled growth conditions. 2 to 3 weeks after sowing, the test plants are treated at the one-leaf stage. The compounds of the invention, formulated in the form of wettable powders (WP) or as emulsion concentrates (EC), are then sprayed onto the green parts of the plants as aqueous suspension or emulsion with addition of 0.5% additive at a water application rate of 600 1/ha (converted). After the test plants have been kept in the greenhouse under optimum growth conditions for about 3 weeks, the activity of the preparations is rated visually in comparison to untreated controls. For example, 100% activity=the plants have died, 0% activity=like control plants. Tables A1 to A15 below show the effects of selected compounds of the general formula (I) according to Tables 1 and 2 on various harmful plants and an application rate corresponding to 320 g/ha and/or 80 g/ha, which were obtained by the experimental procedure mentioned above.
# SETVI [11] = assay: Herbicidal pre-emergence action 2a (greenhouse pots, visual scoring); format: in vivo, Setaria viridis; conditions: dosage 320 g/ha, visual scoring after about 3 weeks vs untreated controls
# Source text: as §3
# VERPE [12] = assay: Herbicidal post-emergence action 1a (greenhouse pots, visual rating); format: in vivo, Veronica persica; conditions: visual rating about 3 weeks after treatment
# Protocol: as §4
# MATIN [13] = assay: Herbicidal pre-emergence action 2a (greenhouse pots, visual scoring); format: in vivo, Matricaria inodora; conditions: dosage 320 g/ha, visual scoring after about 3 weeks vs untreated controls
# Source text: as §3
# AVEFA [14] = assay: Herbicidal post-emergence action 1a (greenhouse pots, visual rating); format: in vivo, Avena fatua; conditions: Dosage 320 g/ha; rated visually about 3 weeks after treatment; 100% = plants have died, 0% = like control plants
# Protocol: as §4
# ECHCG [15] = assay: as above; format: in vivo, Echinochloa crus-galli; conditions: Dosage 320 g/ha; rated visually about 3 weeks after treatment; 100% = plants have died, 0% = like control plants
# Protocol: as §4
# ECHCG [16] = assay: Herbicidal pre-emergence action 2a (greenhouse pots, visual scoring); format: in vivo, Echinochloa crus-galli; conditions: dosage 320 g/ha, visual scoring after about 3 weeks
# Source text: as §3
# POLCO [17] = assay: Herbicidal post-emergence action 1a (greenhouse pots, visual rating); format: in vivo, Polygonum convolvulus; conditions: visual rating about 3 weeks after treatment
# Protocol: as §4
# AMARE [18] = assay: Herbicidal pre-emergence action 2a (greenhouse pots, visual scoring); format: in vivo, Amaranthus retroflexus; conditions: dosage 320 g/ha, visual scoring after about 3 weeks vs untreated controls
# Source text: as §3
# ALOMY [19] = assay: Herbicidal post-emergence action 1a (greenhouse pots, visual rating); format: in vivo, Alopecurus myosuroides; conditions: rated visually about 3 weeks after treatment, 100% = plants have died, 0% = like control plants
# Protocol: as §4
# SETVI [20] = assay: as above; format: in vivo, Setaria viridis; conditions: rated visually about 3 weeks after treatment, 100% = plants have died, 0% = like control plants
# Protocol: as §4
# LOLRI [21] = assay: as above; format: in vivo, Lolium rigidum; conditions: Dosage 320 g/ha; rated visually about 3 weeks after treatment; 100% = plants have died, 0% = like control plants
# Protocol: as §4
# ABUTH = assay: as above; format: in vivo, Abutilon theophrasti; conditions: visual rating about 3 weeks after treatment
# Protocol: as §4
# AVEFA [22] = assay: Herbicidal pre-emergence action 2a (greenhouse pots, visual scoring); format: in vivo, Avena fatua; conditions: dosage 320 g/ha, visual scoring after about 3 weeks
# Source text: as §3
# POLCO [23] = assay: as above; format: in vivo, Polygonum convolvulus; conditions: dosage 320 g/ha, visual scoring after about 3 weeks vs untreated controls
# Source text: as §3
# ALOMY [24] = assay: as above; format: in vivo, Alopecurus myosuroides; conditions: dosage 320 g/ha, visual scoring after about 3 weeks
# Source text: as §3
# LOLRI [25] = assay: as above; format: in vivo, Lolium rigidum; conditions: dosage 320 g/ha, visual scoring after about 3 weeks vs untreated controls
# Source text: as §3
# PHBPU = assay: Herbicidal post-emergence action 1a (greenhouse pots, visual rating); format: in vivo, Pharbitis purpurea; conditions: dosage 320 g/ha, visual rating about 3 weeks after treatment
# Protocol: as §4
# MATIN [26] = assay: as above; format: in vivo, Matricaria inodora; conditions: dosage 320 g/ha, visual rating about 3 weeks after treatment
# Protocol: as §4
Structure (SMILES),Pre-emergence action at 1280 g/ha against DIGSA in % (DIGSA [1]) [%],Pre-emergence action at 1280 g/ha against POAAN in % (POAAN [3]) [%],Pre-emergence action at 1280 g/ha against AMARE in % (AMARE [6]) [%],Pre-emergence action at 1280 g/ha against STEME in % (STEME) [%],Post-emergence action at 1280 g/ha against POAAN in % (POAAN [7]) [%],Post-emergence action against AMARE in % (AMARE [10]) [%],Post-emergence action against VERPE in % (VERPE [12]; dosage 80 g/ha) [%],Post-emergence action against VERPE in % (VERPE [12]; dosage 320 g/ha) [%],Pre-emergence action against MATIN in % (MATIN [13]) [%],Post-emergence action against AVEFA in % (AVEFA [14]) [%],Post-emergence action against ECHCG in % (ECHCG [15]) [%],Pre-emergence action against ECHCG in % (ECHCG [16]) [%],Post-emergence action against POLCO in % (POLCO [17]; dosage 320 g/ha) [%],Post-emergence action against ALOMY in % (ALOMY [19]; Dosage 320 g/ha) [%],Post-emergence action against SETVI in % (SETVI [20]; Dosage 320 g/ha) [%],Post-emergence action against LOLRI in % (LOLRI [21]) [%],Post-emergence action against ABUTH in % (ABUTH; dosage 320 g/ha) [%],Pre-emergence action against LOLRI in % (LOLRI [25]) [%],further results
COC(=O)[C@H](C)Oc1nn(-c2cnccn2)c(-c2ccc(F)nc2)c1C#N [Example I-26],100,100,90,100,100,–,–,–,–,–,–,–,–,–,–,–,–,–,Post-emergence action at 1280 g/ha against MATIN in % (MATIN [2]): 100%; Pre-emergence action at 1280 g/ha against ECHCG in % (ECHCG [4]): 100%; Post-emergence action at 1280 g/ha against ECHCG in % (ECHCG [5]): 100%
COC(=O)[C@@H](C)Oc1nn(-c2cnccn2)c(-c2ccnc(F)c2)c1C#N [Example I-35],90,100,90,100,100,–,–,–,–,–,–,–,–,–,–,–,–,–,Post-emergence action at 1280 g/ha against DIGSA in % (DIGSA [8]): 90%
CCOC(=O)COc1nn(-c2cnccn2)c(-c2cncc(F)c2)c1Br [Example I-90],–,–,–,–,–,90,90,90,100,100,90,100,80,100,90,80,90,100,Pre-emergence action against VERPE in % (VERPE [9]): 100%; Pre-emergence action against SETVI in % (SETVI [11]): 100%; Post-emergence action against POLCO in % (POLCO [17]; dosage 80 g/ha): 80%; Pre-emergence action against AMARE in % (AMARE [18]): 100%; Post-emergence action against ALOMY in % (ALOMY [19]; Dosage 80 g/ha): 80%; Post-emergence action against SETVI in % (SETVI [20]; Dosage 80 g/ha): 80%; Post-emergence action against ABUTH in % (ABUTH; dosage 80 g/ha): 90%; Pre-emergence action against AVEFA in % (AVEFA [22]): 100%; Pre-emergence action against POLCO in % (POLCO [23]): 100%; Pre-emergence action against ALOMY in % (ALOMY [24]): 90%
CCOC(=O)COc1nn(-c2cnccn2)c(-c2cncc(F)c2)c1F [Example I-94],–,–,–,–,–,80,90,90,90,80,90,100,80,80,90,90,90,90,Post-emergence action against PHBPU in % (PHBPU): 100%; Post-emergence action against MATIN in % (MATIN [26]): 80%
